What was measured:
[1] = Evaluation of conversion rate to active form in buffer solution (Experimental Example 1); assay type: physicochemical
Method: For Examples 1 to 16 and Comparative Examples 1 to 14, the attrition rate of the test compound and the conversion rate of the test compound to Alvocidib in a buffer solution were calculated by the following method.
Examples 1 to 16 and Comparative Examples 1 to 14 were each left in buffer solutions adjusted to pH 5.0, 5.5, 6.0, 6.5, 7.0 and 7.4, respectively, at a concentration of 25 umol/L at 37° C. After 0, 0.5, 1, 2 and 3 hours, the residual rates of the compounds of Examples […] and the production rate of Alvocidib were determined by HPLC.
The buffer solutions used at each pH are as follows. • pH 5.0: 50 mM citrate buffer solution (pH 5.0) • pH 5.5: 50 mM citrate buffer solution (pH 5.5) • pH 6.0: 50 mM phosphate buffer solution (pH 6.0) • pH 6.5: 50 mM phosphate buffer solution (pH 6.5) • pH 7.0: 50 mM phosphate buffer solution (pH 7.0) • pH 7.4: 50 mM phosphate buffer solution (pH 7.4)
The measurement conditions for HPLC are as follows.

[2] = Evaluation of conversion rate to active form in human plasma (Experimental Example 3); assay type: in vitro ADME; conditions: human, 0.2 μmol/L
Method: (§1) For Example 1, Example 2, Example 3, Example 4, Example 5, Example 6, Comparative Example 3, Comparative Example 4, Comparative Example 6, Comparative Example 7, Comparative Example 8, Comparative Example 9, Comparative Example 10 and Comparative Example 12, the attrition rate of the test compound and the conversion rate of the test compound to Alvocidib in human plasma and BALB/c mouse plasma were calculated by the following method.
(§2) The test compound was added to human plasma or BALB/c mouse plasma at a concentration of 0.2 μmol/L, and incubated at 37° C. The peak areas of the test compound and Alvocidib in the sample were determined by LC-MS/MS after 0, 30 and 60 minutes for Example 1, Example 2, Example 3, Example 4, Example 5 and Example 6, and after 0, 60 and 120 minutes for Comparative Example 3, Comparative Example 4, Comparative Example 6, Comparative Example 7, Comparative Example 8, Comparative Example 9, Comparative Example 10 and Comparative Example 12, and the attrition rate of the test compound and the conversion rate of the test compound to Alvocidib were calculated by the following formula. Attrition rate of test compound (%):(peak area of test compound in sample/peak area of test compound in sample after 0 minute)×100 Conversion rate to Alvocidib (%):(peak area of Alvocidib in sample/peak area of Alvocidib in reaction solution containing 0.2 μmol/L Alvocidib)×100
(§3) The measurement conditions for LC-MS/MS are as follows. • HPLC: Prominence system (Shimadzu Corporation) • MS/MS: • Example 1, Example 2, Example 3, Example 4, Example 5, Example 6, Comparative Example 8 (mouse), Comparative Example 10 (mouse) and Comparative Example 12 (mouse) • QTRAP5500 (SCIEX) • Comparative Example 6, Comparative Example 7, Comparative Example 8 (human), Comparative Example 9, Comparative Example 10 (human) and Comparative Example 12 (human) • 4000 QTRAP (SCIEX) • column: • other than Example 3 and Example 4 • Cadenza CD-C18, 3 μm, 50×2 mm (Imtakt Corporation) • Example 3 and Example 4 • Kinetex C8, 2.6 μm, 50×2.1 mm (Phenomenex) • column temperature: 40° C. • mobile phase: • A: water containing 0.1% formic acid • B: acetonitrile containing 0.1% formic acid • A/B (min): • Example 1, Example 2, Example 5, Example 6, Comparative Example 8 (mouse), Comparative Example 10 (mouse) and Comparative Example 12 (mouse) • 90/10(0)→40/60(5.0)→10/90(5.1)→10/90(6.5)→90/10(6.6)→90/10(8.0) • Example 3 and Example 4 • 86/14(0)→86/14(3.5)→10/90(5.5)→10/90(6.5)→86/14(6.6)→86/14(9.5) • Comparative Example 6, Comparative Example 7, Comparative Example 8 (human), Comparative Example 9, Comparative Example 10 (human) and Comparative Example 12 (human) • 90/10(0)→10/90(2.5)→10/90(3.5)→90/10(3.6)→90/10(5.0) • flow rate: 0.4 mL/min • detection: ESI (positive mode) • injection: 1 to 5 μL

[3] = Evaluation of conversion rate to active form in BALB/c mouse plasma (Experimental Example 3); assay type: in vitro ADME; conditions: BALB/c, mouse, 0.2 μmol/L
Method: as §1, §2, §3

Production rate of Alvocidib ([1]; pH5.0, 0 hr): 1.7%
Residual rate ([1]; pH5.0, 0 hr): 97.7%
Production rate of Alvocidib ([1]; pH5.0, 0.5 hr): 1.8%
Residual rate ([1]; pH5.0, 0.5 hr): 97.8%
Production rate of Alvocidib ([1]; pH5.0, 1 hr): 1.7%
Residual rate ([1]; pH5.0, 1 hr): 97.8%
Production rate of Alvocidib ([1]; pH5.0, 2 hr): 1.8%
Residual rate ([1]; pH5.0, 2 hr): 97.7%
Production rate of Alvocidib ([1]; pH5.0, 3 hr): 1.8%
Residual rate ([1]; pH5.0, 3 hr): 97.7%
Production rate of Alvocidib ([1]; pH5.5, 0 hr): 1.8%
Residual rate ([1]; pH5.5, 0 hr): 97.8%
Production rate of Alvocidib ([1]; pH5.5, 0.5 hr): 1.8%
Residual rate ([1]; pH5.5, 0.5 hr): 97.6%
Production rate of Alvocidib ([1]; pH5.5, 1 hr): 1.8%
Residual rate ([1]; pH5.5, 1 hr): 97.7%
Production rate of Alvocidib ([1]; pH5.5, 2 hr): 1.8%
Residual rate ([1]; pH5.5, 2 hr): 97.8%
Production rate of Alvocidib ([1]; pH5.5, 3 hr): 1.8%
Residual rate ([1]; pH5.5, 3 hr): 97.6%
Production rate of Alvocidib ([1]; pH6.0, 0 hr): 1.8%
Residual rate ([1]; pH6.0, 0 hr): 97.8%
Production rate of Alvocidib ([1]; pH6.0, 0.5 hr): 1.8%
Residual rate ([1]; pH6.0, 0.5 hr): 97.7%
Production rate of Alvocidib ([1]; pH6.0, 1 hr): 1.7%
Residual rate ([1]; pH6.0, 1 hr): 97.7%
Production rate of Alvocidib ([1]; pH6.0, 2 hr): 1.8%
Residual rate ([1]; pH6.0, 2 hr): 97.7%
Production rate of Alvocidib ([1]; pH6.0, 3 hr): 1.8%
Residual rate ([1]; pH6.0, 3 hr): 97.7%
Production rate of Alvocidib ([1]; pH6.5, 0 hr): 1.8%
Residual rate ([1]; pH6.5, 0 hr): 97.7%
Production rate of Alvocidib ([1]; pH6.5, 0.5 hr): 1.8%
Residual rate ([1]; pH6.5, 0.5 hr): 97.6%
Production rate of Alvocidib ([1]; pH6.5, 1 hr): 1.8%
Residual rate ([1]; pH6.5, 1 hr): 97.7%
Production rate of Alvocidib ([1]; pH6.5, 2 hr): 1.8%
Residual rate ([1]; pH6.5, 2 hr): 97.8%
Production rate of Alvocidib ([1]; pH6.5, 3 hr): 1.8%
Residual rate ([1]; pH6.5, 3 hr): 97.7%
Production rate of Alvocidib ([1]; pH7.0, 0 hr): 1.8%
Residual rate ([1]; pH7.0, 0 hr): 97.7%
Production rate of Alvocidib ([1]; pH7.0, 0.5 hr): 1.8%
Residual rate ([1]; pH7.0, 0.5 hr): 97.7%
Production rate of Alvocidib ([1]; pH7.0, 1 hr): 1.8%
Residual rate ([1]; pH7.0, 1 hr): 97.6%
Production rate of Alvocidib ([1]; pH7.0, 2 hr): 1.8%
Residual rate ([1]; pH7.0, 2 hr): 97.6%
Production rate of Alvocidib ([1]; pH7.0, 3 hr): 1.8%
Residual rate ([1]; pH7.0, 3 hr): 97.7%
Production rate of Alvocidib ([1]; pH7.4, 0 hr): 1.8%
Residual rate ([1]; pH7.4, 0 hr): 97.7%
Conversion to Alvocidib at pH 7.4 ([1]; pH 7.4, 37° C., up to 3 hours): slowly converted to Alvocidib
Production rate of Alvocidib ([1]; pH7.4, 0.5 hr): 1.8%
Residual rate ([1]; pH7.4, 0.5 hr): 97.6%
Production rate of Alvocidib ([1]; pH7.4, 1 hr): 1.7%
Residual rate ([1]; pH7.4, 1 hr): 97.7%
Production rate of Alvocidib ([1]; pH7.4, 2 hr): 1.8%
Residual rate ([1]; pH7.4, 2 hr): 97.7%
Production rate of Alvocidib ([1]; pH7.4, 3 hr): 1.8%
Residual rate ([1]; pH7.4, 3 hr): 97.8%
Production rate (%) of Alvocidib ([2]; 0 min): 2%
Residual rate (%) of test compound ([2]; 0 min): 100%
Production rate (%) of Alvocidib ([2]; 60 min): 3%
Residual rate (%) of test compound ([2]; 60 min): 101%
Production rate (%) of Alvocidib ([2]; 120 min): 3%
Residual rate (%) of test compound ([2]; 120 min): 134%
Production rate (%) of Alvocidib ([3]; 0 min): 2%
Residual rate (%) of test compound ([3]; 0 min): 100%
Production rate (%) of Alvocidib ([3]; 60 min): 3%
Residual rate (%) of test compound ([3]; 60 min): 94%
Production rate (%) of Alvocidib ([3]; 120 min): 3%
Residual rate (%) of test compound ([3]; 120 min): 92%
Compound: CCNC(=O)O[C@@H]1CN(C)CC[C@@H]1c1c(O)cc(O)c2c(=O)cc(-c3ccccc3Cl)oc12 [Comparative Example 4, reference compound]
